Reference: patent publication US20240092779A1, “USP1 INHIBITORS AND USES THEREOF” (Zentaur Therapeutics USA Inc., priority 2022, published 2024)
Converted amounts (≈) assume the structure as drawn.

Tests used:
[1] = Solubility in FaSSIF (Fasted State Simulated Intestinal Fluid); type: physicochemical; settings: FaSSIF pH 6.5, 25° C.; for solubility at 2 h: kinetic from dmso stock
Procedure: Solubility in FaSSIF (Fasted State Simulated Intestinal Fluid)
Certain Compounds of the Disclosure were assessed for the apparent solubility in FaSSIF.
0.420 g of NaOH, 3.438 g of NaH2PO4 and 6.186 g of NaCl were dissolved into about 900 mL ultrapure water. The solution was adjusted to the pH of 6.5 with 1N NaOH or 1N HCl. The solution was then diluted with ultrapure water to 1000 mL at room temperature. The resulting solution is used as buffer solution.
2.240 g of FaSSIF Powder was added to about 500 mL of above-mentioned buffer solution. The solution was stirred until powder was completely dissolved. Then the solution was diluted with buffer A to 1000 mL at room temperature. This solution is FaSSIF to be used in the following experiment.
15 μL of stock solution (10 mM) of each sample was placed into their proper 96-well rack. 485 μL of FaSSIF was added into each vial of the cap-less solubility sample plate. One stir stick was added to each vial and the vial was sealed using a molded PTFE/Silicone plug. The solubility sample plate was transferred to the Eppendorf Thermomixer Comfort plate shaker and shaked at 25° C. at 1100 RPM for 2 hours. After completion of the 2 hours, the stir sticks using a big magnet were removed. The samples from the solubility sample plate were transferred into the filter plate. Using the vacuum manifold, all the samples are filtered. Aliquot of 5 μL was taken from filtrate followed by addition of 5 μL DMSO and 490 μL of a mixture of H2O and acetonitrile containing internal standard (1:1).
3 μM Standards solution (STD) was prepared from the 10 mM DMSO STD plate.as following: transferring 6 μL into the remaining empty plate, adding 194 μL of DMSO to that plate to have a STD concentration of 300 μM. From the 300 μM DMSO STD plate, 5 μL solution was transferred into the remaining empty plate. Addition of 5 μL PBS and 490 μL of a mixture of H2O and acetonitrile containing internal standard (1:1) to that plate furnished a final STD concentration of 3 μM STD solution.
The samples are analyzed and quantified against the standard of known concentration using LC/MS/MS, calculating the solubility of the test compound as following (DF means the dilution factor):
[Sample solubility in FsSSIF (04)]=Area Ratio sample×DF sample×[STD]/Area Ratio STD

[2] = Liver microsomal stability (HLM); type: in vitro ADME; settings: human liver microsomes 0.5 mg/mL, 1 μM compound, NADPH; for microsomal CLint at 1 μM: human, liver microsomes
Procedure: Liver Microsomal Stability
Certain Compounds of the Disclosure were assessed for ADME metabolic stability in human liver microsomes (HLM).
Samples were prepared by adding 222.5 μL of a master solution (100 mM phosphate buffer and 0.5 mg/mL liver microsomes (HLM)) and 25 μL of a 10 mM NADPH solution to incubation plates, which were then warmed for 10 min. Each compound was separately dissolved in DMSO to prepare 10 mM stock solutions, which were then diluted to 100 μM with acetonitrile. A reaction was started by adding 2.5 μL of the […] solution of each compound to separate incubation plates such that the final concentration of for each compound in each plate was 1 μM. Aliquots of 30 μL were taken from the reaction solution at 0.5, 5, 15, 30 and 60 minutes. The reaction was stopped by the addition of 5 volumes of cold acetonitrile with IS (100 nM alprazolam, 200 nM caffeine and 100 nM tolbutamide). Aliquot of 100 μL of the supernatant was diluted by 100 μL ultra-pure water, and the mixture was used for LC/MS/MS analysis. Peak areas were determined from extracted ion chromatograms. […]. The percentage of remaining parent was calculated from peak area of test compound or PC. The slope value, k, is determined by linear regression of the natural logarithm of percent parent remaining vs. incubation time curve. All calculations are carried out using Microsoft Excel.
The in vitro half-life (in vitro t1/2) is determined from the slope value:
Conversion of the in vitro t1/2 (in min) into the in vitro intrinsic clearance (in vitro CLint, (HLM Clint (μL/min/mg proteins))) is done using the following equation: […]
A: HLM Clint <10 μL/min/mg; B: 10 μL/min/mg≤HLM Clint <50 μL/min/mg; C: HLM Clint ≥50 μL/min/mg.

SMILES	solubility at 2 h [1] [µM]	microsomal CLint at 1 μM [2] [µL/min/mg]	Solubility in FaSSIF(μM) ([1]; 2 hours)	HLM Clint (μL/min/mg) [2]
COc1ncnc(C2CC2)c1-c1ncc2cc(-c3cnn(C)c3)c(=O)n(Cc3ccc(-c4nc(C(F)(F)F)cn4C(C)C)cc3)c2n1 [Compound I-138]	≥ 100	< 10	–	–
COc1cc(Cn2c(=O)cnc3cnc(-c4c(OC)ncnc4C4CC4)nc32)ccc1-c1nc(C(F)(F)F)cn1C(C)C [Compound I-119]	–	–	C (Solubility ≥100 μN)	A (HLM Clint <10 μL/min/mg)
COc1ncnc(C2CC2)c1-c1ncc2ccc(=O)n(Cc3ccc(-n4nc(C(F)(F)F)cc4C)cc3)c2n1 [Compound I-8, 2-(4-cyclopropyl-6-methoxypyrimidin-5-yl)-8-({4-[5-methyl-3-(trifluoromethyl)pyrazol-1-yl]phenyl}methyl)pyrido[2,3-d]pyrimidin-7-one]	≥ 100	10 to 50	–	–
COc1cc(Cn2c(=O)cnc3cnc(-c4c(OC)ncnc4C4CC4)nc32)ccc1-c1nc(C(F)(F)F)cn1C(C)C [Compound I-118]	≥ 100	10 to 50	–	–
COc1cc(Cn2c(=O)cnc3cnc(-c4c(OC)ncnc4C4CC4)nc32)cc(F)c1-c1nc(C(F)(F)F)cn1C(C)C [Compound I-107]	≥ 100	< 10	–	–
COc1ncnc(C2CC2)c1-c1ncc2cc(C3=CCN(C)CC3)c(=O)n(Cc3ccc(-c4nc(C(F)(F)F)cn4C(C)C)cc3)c2n1 [Compound I-106]	≥ 100	< 10	–	–
COc1cc(Cn2c(=O)ccc3cnc(-c4c(OC)ncnc4OC)nc32)cc(F)c1-c1nc(C(F)(F)F)cn1C(C)C [Compound I-113]	10 to 100 (≈ 6 to 60 µg/mL)	10 to 50	–	–
COc1cc(Cn2c(=O)cnc3cnc(-c4c(OC)ncnc4C4CC4)nc32)ccc1-n1nc(C(F)(F)F)cc1OC [Compound I-123]	≥ 100	10 to 50	–	–

The next lines start with the values.

solubility at 2 h [1] [µM]	microsomal CLint at 1 μM [2] [µL/min/mg]	Solubility in FaSSIF(μM) ([1]; 2 hours)	HLM Clint (μL/min/mg) [2]	SMILES
≥ 100	< 10	–	–	COc1ncnc(C2CC2)c1-c1ncc2cc(-c3cn[nH]c3)c(=O)n(Cc3ccc(-c4nc(C(F)(F)F)cn4C4CC4)cc3)c2n1 [Compound I-130]
≥ 100	< 10	–	–	COCCN1CCC(c2cc3cnc(-c4c(OC)ncnc4C4CC4)nc3n(Cc3ccc(-c4nc(C(F)(F)F)cn4C4CC4)cc3)c2=O)CC1 [Compound I-120]
≥ 100	10 to 50	–	–	COc1ncnc(C2CC2)c1-c1ncc2nc(N3CCN(C)CC3)c(=O)n(Cc3ccc(-c4nc(C(F)(F)F)cn4C4CC4)cc3)c2n1 [Compound I-97]
10 to 100 (≈ 6.54 to 65.4 µg/mL)	10 to 50	–	–	COc1ncnc(C2CC2)c1-c1ncc2cc(-c3c(C)cnn3C)c(=O)n(Cc3ccc(-c4nc(C(F)(F)F)cn4C4CC4)cc3)c2n1 [Compound I-133]
≥ 100	10 to 50	–	–	COc1ncnc(C2CC2)c1-c1ncc2cc(-c3c(C)nn(C)c3C)c(=O)n(Cc3ccc(-c4nc(C(F)(F)F)cn4C4CC4)cc3)c2n1 [Compound I-129]
≥ 100	10 to 50	–	–	COc1ncnc(C2CC2)c1-c1ncc2cc(-c3cnn(CCN(C)C)c3)c(=O)n(Cc3ccc(-c4nc(C(F)(F)F)cn4C4CC4)cc3)c2n1 [Compound I-132]
≥ 100	< 10	–	–	COc1ncnc(C2CC2)c1-c1ncc2cc(C(C)(C)O)c(=O)n(Cc3ccc(-c4nc(C(F)(F)F)cn4C4CC4)cc3)c2n1 [Compound I-109]
≥ 100	< 10	–	–	COc1ncnc(C2CC2)c1-c1ncc2cc(-c3cnn(CCO)c3)c(=O)n(Cc3ccc(-c4nc(C(F)(F)F)cn4C4CC4)cc3)c2n1 [Compound I-131]
≥ 100	< 10	–	–	COc1ncnc(C2CC2)c1-c1ncc2cc(-c3cnn(C)c3)c(=O)n(Cc3ccc(-c4nc(C(F)(F)F)cn4C4CC4)cc3)c2n1 [Compound I-127]
≥ 100	< 10	–	–	COc1ncnc(C2CC2)c1-c1ncc2cc(-c3cnc(C)nc3)c(=O)n(Cc3ccc(-c4nc(C(F)(F)F)cn4C4CC4)cc3)c2n1 [Compound I-140]
